Experimental findings from ChEMBL document CHEMBL4616584, “Designing around Structural Alerts in Drug Discovery” (J Med Chem, 2020) are described below.

Usually half-life stands for the time in which the quantity being followed falls by half. For orientation: fraction unbound means free concentration divided by total concentration. A higher fraction unbound goes with weak binding.

A short description of data set [1]: Half life of the compound at pH 7.4. In kind it is physicochemical.
A short description of data set [2]: Half life of the compound in buffer. In kind it is physicochemical.
Data set [3] is described as follows: in vitro. The following applies: human, platelets.
Data set [4] can be described thus: Covalent protein binding in human liver microsomes assessed per mg protein at 10 uM preincubated for 5 mins followed by UDPGA addition and measured after 60 mins by liquid scintillation counting method. It counts as ADME, Microsome. The conditions noted are these: 1 h. (Liver microsomes are a subcellular fraction often used to study metabolism.)
Data set [5] is described as follows: Half life of the compound. It counts as physicochemical.
Data set [6] in a line: Half life in potassium phosphate buffer by liquid chromatography-tandem mass spectrometry. In kind it is physicochemical.
A short description of data set [7]: Covalent protein binding in human liver microsomes assessed per mg protein at 50 uM after 60 mins in presence of NADPH by LC-MS/MS method. It counts as ADME, Microsome. The following applies: 1 h.

Molecules are shown by their SMILES.

Turning to `NC(=O)OCC(C=O)c1ccccc1` (configuration not stated), the half-life in data set [1] is below 0.5 min.
For the compound `Cc1cc(OCCCS(C)(=O)=O)cc(C)c1-c1cccc(COc2ccc3c(c2)OC[C@H]3CC(=O)O[C@H]2O[C@@H](C(=O)O)[C@H](O)[C@H](O)[C@@H]2O)c1`, in data set [2], the half-life is 30 min.
In turn, `COC(=O)[C@H](c1ccccc1Cl)N1CCc2sccc2C1` [CLOPIDOGREL] had a fraction unbound in data set [3] of 0.98.
As to `CC(C)Cc1ccc(CC(=O)O)cc1` [IBUFENAC], the PB in data set [4] lay within 1000 to 8600 pmol. Also, the half-life in data set [5] is 66 min.
Compound `CC(C)Cc1ccc(C(C)C(=O)O)cc1` (configuration not stated) [IBUPROFEN] came in with a PB in data set [4] of 1000 to 8600 pmol.
In data set [6], `Cc1ccc(Cl)c(Nc2ccccc2C(=O)O)c1Cl` [MECLOFENAMIC ACID] had a half-life of 1690 min.
On the same count and under the same terms, under `Cc1cccc(Nc2ccccc2C(=O)O)c1C` [MEFENAMIC ACID] stands 990 min.
Consider `Cc1cnc(NC(=O)C2=C(O)c3ccccc3S(=O)(=O)N2C)s1` [MELOXICAM], for which the PB in data set [7] is 3.6 pmol.
`CCCN(CCC)S(=O)(=O)c1ccc(C(=O)O)cc1` [PROBENECID] gave a half-life in data set [6] of 16.2 min.
As for `CN1C(C(=O)Nc2nccs2)=C(O)c2ccccc2S1(=O)=O` [SUDOXICAM], the PB in data set [7] amounted to 1.4 pmol.
Compound `Cc1cc(CC(=O)O)n(C)c1C(=O)c1ccc(Cl)cc1` [ZOMEPIRAC] had a half-life in data set [2] of 30 min.
